Tests used:
Assay type in all cases: biochemical
KDM4A (JMJD2A) = molecular target: T1, KDM4A (JMJD2A) (Homo sapiens, UniProt O75164); test: Histone lysine demethylase AlphaLISA assay, KDM4A; conditions: read-out: KDM4A HDME Inhibition IC50
T1 construct: 1-350; purchased BPS Bioscience, US; host or cells: E. coli
T1 sequence (O75164 1-350): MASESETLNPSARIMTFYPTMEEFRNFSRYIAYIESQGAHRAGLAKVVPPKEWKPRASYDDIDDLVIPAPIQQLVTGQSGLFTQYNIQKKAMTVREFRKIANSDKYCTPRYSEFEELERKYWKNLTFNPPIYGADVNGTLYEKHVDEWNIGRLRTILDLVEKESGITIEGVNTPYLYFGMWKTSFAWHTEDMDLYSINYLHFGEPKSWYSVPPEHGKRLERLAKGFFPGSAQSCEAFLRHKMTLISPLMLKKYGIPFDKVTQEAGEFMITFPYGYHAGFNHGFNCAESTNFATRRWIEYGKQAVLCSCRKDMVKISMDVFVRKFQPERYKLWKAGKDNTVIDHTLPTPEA
Outline: (§1)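 Each enzyme was pre-incubated 10 min in buffer, then 10 min with compound in 3% DMSO solution. The reaction started with biotinylated histone H3 peptide substrate plus 25 μM L-ascorbate and 10 μM α-KG at room temperature. Detection used AlphaLISA acceptor beads, then streptavidin donor beads, in the dark.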

KDM4B (JMJD2B) = molecular target: T2, KDM4B (JMJD2B) (Homo sapiens, UniProt O94953); test: Histone lysine demethylase AlphaLISA assay, KDM4B; conditions: read-out: KDM4B HDME Inhibition IC50
T2 construct: 2-500; purchased BPS; host or cells: Bac (baculovirus system)
T2 sequence (O94953 2-500): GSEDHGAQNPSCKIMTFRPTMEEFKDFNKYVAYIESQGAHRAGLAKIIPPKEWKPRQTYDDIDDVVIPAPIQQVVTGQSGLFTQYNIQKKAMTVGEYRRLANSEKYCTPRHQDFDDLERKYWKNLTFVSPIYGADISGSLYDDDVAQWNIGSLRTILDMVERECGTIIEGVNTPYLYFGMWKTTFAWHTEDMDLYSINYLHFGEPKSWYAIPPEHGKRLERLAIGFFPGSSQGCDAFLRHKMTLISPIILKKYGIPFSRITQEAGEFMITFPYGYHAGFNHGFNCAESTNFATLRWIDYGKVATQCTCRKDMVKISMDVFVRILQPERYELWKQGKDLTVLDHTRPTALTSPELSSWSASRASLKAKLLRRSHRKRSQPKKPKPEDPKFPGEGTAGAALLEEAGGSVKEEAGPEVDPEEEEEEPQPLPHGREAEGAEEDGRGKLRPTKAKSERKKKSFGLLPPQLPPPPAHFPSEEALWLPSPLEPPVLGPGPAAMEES
Outline: as §1

KDM3B (JMJD1B) = molecular target: T3, KDM3B (JMJD1B) (Homo sapiens, UniProt Q7LBC6); test: Histone lysine demethylase AlphaLISA assay, KDM3B; conditions: read-out: KDM3B HDME Inhibition IC50
T3 construct: 842-1761; host or cells: Bac (baculovirus system)
T3 sequence (Q7LBC6 842-1761): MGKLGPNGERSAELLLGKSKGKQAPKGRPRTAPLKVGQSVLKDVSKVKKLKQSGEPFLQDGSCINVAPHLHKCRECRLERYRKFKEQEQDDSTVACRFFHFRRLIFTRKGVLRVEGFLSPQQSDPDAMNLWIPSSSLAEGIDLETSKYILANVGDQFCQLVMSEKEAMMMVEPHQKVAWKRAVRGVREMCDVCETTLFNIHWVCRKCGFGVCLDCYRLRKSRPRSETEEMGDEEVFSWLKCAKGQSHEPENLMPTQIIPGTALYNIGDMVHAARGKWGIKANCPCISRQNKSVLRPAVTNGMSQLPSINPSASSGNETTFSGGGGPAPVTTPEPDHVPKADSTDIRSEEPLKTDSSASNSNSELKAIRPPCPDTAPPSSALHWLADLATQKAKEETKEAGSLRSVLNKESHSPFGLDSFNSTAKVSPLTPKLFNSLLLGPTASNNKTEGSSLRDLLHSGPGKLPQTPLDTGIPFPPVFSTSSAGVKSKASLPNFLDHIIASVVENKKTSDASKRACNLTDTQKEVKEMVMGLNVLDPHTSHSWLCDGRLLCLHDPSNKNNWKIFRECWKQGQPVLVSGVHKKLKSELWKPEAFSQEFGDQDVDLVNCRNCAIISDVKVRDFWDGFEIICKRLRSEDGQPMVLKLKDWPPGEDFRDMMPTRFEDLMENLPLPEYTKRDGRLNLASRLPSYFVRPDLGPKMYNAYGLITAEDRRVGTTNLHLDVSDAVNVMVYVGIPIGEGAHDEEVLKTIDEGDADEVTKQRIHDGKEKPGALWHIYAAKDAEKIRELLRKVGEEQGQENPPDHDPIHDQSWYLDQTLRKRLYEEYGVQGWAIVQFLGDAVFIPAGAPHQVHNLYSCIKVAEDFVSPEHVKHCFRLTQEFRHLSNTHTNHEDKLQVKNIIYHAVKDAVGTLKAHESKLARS
Outline: as §1

KDM6A (UTX) = KDM6A (UTX) (Homo sapiens, UniProt O15550); test: Histone lysine demethylase AlphaLISA assay, KDM6A; conditions: read-out: KDM6A HDME Inhibition IC50
Sequence of KDM6A (UTX) (O15550 919-1401): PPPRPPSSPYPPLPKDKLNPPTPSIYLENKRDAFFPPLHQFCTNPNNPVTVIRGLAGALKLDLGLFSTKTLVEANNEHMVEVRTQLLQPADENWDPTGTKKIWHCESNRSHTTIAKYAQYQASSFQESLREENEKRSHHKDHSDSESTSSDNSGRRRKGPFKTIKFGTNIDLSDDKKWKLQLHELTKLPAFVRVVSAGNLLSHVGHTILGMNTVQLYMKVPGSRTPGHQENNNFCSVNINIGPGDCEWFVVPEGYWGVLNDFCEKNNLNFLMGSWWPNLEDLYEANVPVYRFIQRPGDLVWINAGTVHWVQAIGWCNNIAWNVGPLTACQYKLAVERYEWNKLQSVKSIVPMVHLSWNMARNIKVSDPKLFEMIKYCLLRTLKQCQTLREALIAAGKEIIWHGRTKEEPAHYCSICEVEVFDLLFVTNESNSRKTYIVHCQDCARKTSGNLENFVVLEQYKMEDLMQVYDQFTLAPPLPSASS
Outline: as §1

IC50 (KDM4A (JMJD2A)) [nM]	IC50 (KDM4B (JMJD2B)) [nM]	IC50 (KDM3B (JMJD1B)) [nM]	IC50 (KDM6A (UTX)) [nM]	Compound
> 2500	> 2500	> 2500	> 2500	CN(C)CCCCNCc1cc(CN)ccn1 [Compound 2, [2-({[4-(dimethylamino)butyl]-amino}methyl)pyridin-4-yl]methanamine]
> 2500	> 2500	> 2500	> 2500	CN(C)CCNCc1ccnc(CNCCCN(C)Cc2ccccc2)c1 [Compound 18, benzyl[3-({[4-({[2-(dimethylamino)ethyl]-amino}methyl)pyridin-2-yl]methyl}-amino)propyl]-methylamine]
> 2500	> 2500	> 2500	> 2500	COCCNCc1ccnc(CNCCCN(C)Cc2ccccc2)c1 [Compound 19, benzyl(3-{[(4-{[(2-methoxyethyl)amino]-methyl}pyridin-2-yl)methyl]amino}-propyl)methylamine]
< 250	< 250	> 2500	–	COc1ccccc1CN1CCC(NC(=O)CNCc2cc(CNC3CC3)ccn2)CC1 [Compound 20, 2-[({4-[(cyclopropylamino)-methyl]pyridin-2-yl}methyl)amino]-N-{1-[(2-methoxyphenyl)methyl]-piperidin-4-yl}acetamide]
–	–	–	> 2500	CCN(CCN(C)C)C(=O)CN(Cc1cc(CNC(=O)C(F)(F)F)ccn1)C(=O)C(F)(F)F [Compound 26, N-[(2-{[N-({[2-(dimethylamino)ethyl]-(ethyl)carbamoyl}-methyl)-2,2,2-trifluoroacetamido]-methyl}pyridin-4-yl)methyl]-2,2,2-trifIuoroacetamide]
250 to 2500	< 250	> 2500	> 2500	COC(=O)CNCc1cc(/C=N/C2CC2)ccn1 [Compound 59, methyl 2-[({4-[N-cyclopropyl-carboximidoyl]pyridin-2-yl}methyl)amino]-acetate]
–	–	–	> 2500	CCN(CC)CCCCNCc1cc(C2NCCCN2C)ccn1 (centres unmarked) [Compound 68, [4-(diethylamino)butyl]({[4-(1-methyl-1,3-diazinan-2-yl)pyridin-2-yl]methyl})amine]
> 2500	< 250	> 2500	> 2500	O=Cc1ccnc(CNCCCCN(Cc2ccccc2)C2CC2)c1 [Compound 109, 2-[({4-[benzyl-(cyclopropyl)amino]-butyl}amino)methyl]-pyridine-4-carbaldehyde]
250 to 2500	< 250	> 2500	> 2500	O=Cc1ccnc(CNCC(=O)NC2CCN(Cc3ccccc3)C2)c1 (centres unmarked) [Compound 113, N-(1-benzylpyrrolidin-3-yl)-2-{[(4-formylpyridin-2-yl)methyl]amino}-acetamide]
